Experimental data as given in patent US9650395B2, “Antibacterial compounds and methods for use” (PTC Therapeutics, Inc., priority 2011, dated 2017).
Values after ≈ are worked out from the molar mass of the structure shown.

Columns and labels:
[1] = tested on: E. coli ELZ4000 (MDR clinical isolate); assay: Antibacterial activity, MIC, MDR E. coli ELZ4000; format: cell-based, Escherichia coli; conditions: Escherichia coli; E. coli ELZ4000, MDR clinical isolate; read-out: MIC ELZ4000
[2] = tested on: control Gram-negative E. coli 25922 strain; assay: Antibacterial activity, microbroth dilution MIC, E. coli 25922; format: cell-based, Escherichia coli; conditions: Escherichia coli; E. coli 25922, microbroth dilution; read-out: MIC, 25922
[3] = tested on: super sensitive Gram-negative Escherichia coli (E. coli) BAS849; assay: Antibacterial activity, microbroth dilution MIC, E. coli BAS849; format: cell-based; conditions: Escherichia coli; E. coli BAS849, microbroth dilution; read-out: MIC, BAS849
[4] = tested on: Klebsiella pneumoniae (K. pneumoniae) 35657; assay: Antibacterial activity, MIC, K. pneumoniae 35657; format: cell-based; conditions: Klebsiella pneumoniae
[5] = tested on: Acinetobacter baumannii (A. baumannii) BAA747; assay: Antibacterial activity, MIC, A. baumannii BAA747; format: cell-based; conditions: Acinetobacter baumannii; A. baumannii BAA747; read-out: MIC BAA747
[6] = tested on: resistant A. baumannii MXX2240 (MDR clinical isolate); assay: Antibacterial activity, MIC, resistant A. baumannii MXX2240; format: cell-based, Acinetobacter baumannii; conditions: Acinetobacter baumannii, resistant A. baumannii MMX2240, MDR clinical isolate; read-out: MIC MMX2240
[7] = tested on: quinolone resistant E. coli LZ3111; assay: Antibacterial activity, MIC, quinolone resistant E. coli LZ3111; format: cell-based, Escherichia coli; conditions: Escherichia coli, read-out: MIC, LZ3111
Text: (§1) The antibacterial activity from a microbroth dilution method may be presented as the minimum inhibitory concentration (MIC in […]). The MIC value is the lowest concentration of a drug which prevents macroscopically visible bacterial growth under test conditions.
Mutations in these regions are known to confer a high level resistance to the quinolone class of antibiotics.

[8] = tested on: Pseudomonas aeruginosa (P. aeruginosa) 27853; assay: Antibacterial activity, MIC, P. aeruginosa 27853; format: cell-based; conditions: Pseudomonas aeruginosa, P. aeruginosa 27853; read-out: MIC 27853
Text: as §1
Antibacterial activity of test compounds against the Gram-negative bacterium Pseudomonas aeruginosa (P. aeruginosa) 27853 is shown in Table 5.

[9] = tested on: Gram-positive Staphylococcus aureus (S. aureus) 29213; assay: Antibacterial activity, microbroth dilution MIC, S. aureus 29213; format: cell-based; conditions: Staphylococcus aureus; S. aureus 29213, microbroth dilution; read-out: MIC, 29213
[10] = tested on: E. coli ELZ4251 (MDR clinical isolate); assay: Antibacterial activity, MIC, MDR E. coli ELZ4251; format: cell-based, Escherichia coli; conditions: Escherichia coli, E. coli ELZ4251, MDR clinical isolate; read-out: MIC ELZ4251
[11] = tested on: resistant K. pneumoniae MXX1232 (MDR clinical isolate); assay: Antibacterial activity, MIC, resistant K. pneumoniae MXX1232; format: cell-based, Klebsiella pneumoniae; conditions: Klebsiella pneumoniae; resistant K. pneumoniae MMX1232, MDR clinical isolate; read-out: MIC MMX1232

Structure (SMILES)	MIC [1] [µg/mL]	MIC [2] [µg/mL]	MIC [3] [µg/mL]	MIC [4] [µg/mL]	MIC [5] [µg/mL]	MIC [6] [µg/mL]	MIC [7] [µg/mL]	MIC [8] [µg/mL]	MIC [9] [µg/mL]	MIC [10] [µg/mL]	MIC [11] [µg/mL]
CCc1cc(C(=O)O)c(=O)[nH]c1-c1ccc(N2C[C@@H]3[C@H](C2)[C@H]3NCc2ccccc2)cc1 [Cpd 178, 6-{4-[(1R,5S,6s)-6-(benzylamino)-3-azabicyclo[3.1.0]hex-3-yl]phenyl}-5-ethyl-2-oxo-1,2-dihydropyridine-3-carboxylic acid]	12.5 to 150 (≈ 29.1 to 349 µM)	< 1	< 1	< 1	1 to 3.5 (≈ 2.33 to 8.15 µM)	12.5 to 150 (≈ 29.1 to 349 µM)	12.5 to 150 (≈ 29.1 to 349 µM)	12.5 to 150 (≈ 29.1 to 349 µM)	12.5 to 150 (≈ 29.1 to 349 µM)	12.5 to 150 (≈ 29.1 to 349 µM)	12.5 to 150 (≈ 29.1 to 349 µM)
CN(C)c1ccc(-c2[nH]c(=O)c(C(=O)O)c(O)c2CC=O)cc1 [Cpd 327, 6-(4-(dimethylamino)phenyl)-4-hydroxy-2-oxo-5-(2-oxoethyl)-1,2-dihydropyridine-3-carboxylic acid]	–	12.5 to 150 (≈ 39.5 to 474 µM)	3.5 to 12.5 (≈ 11.1 to 39.5 µM)	12.5 to 150 (≈ 39.5 to 474 µM)	12.5 to 150 (≈ 39.5 to 474 µM)	12.5 to 150 (≈ 39.5 to 474 µM)	12.5 to 150 (≈ 39.5 to 474 µM)	12.5 to 150 (≈ 39.5 to 474 µM)	12.5 to 150 (≈ 39.5 to 474 µM)	–	12.5 to 150 (≈ 39.5 to 474 µM)
CN(C)c1ccc(-c2[nH]c(=O)c(C(=O)O)c(O)c2CCO)cc1 [Cpd 328, 6-(4-(dimethylamino)phenyl)-4-hydroxy-5-(2-hydroxyethyl)-2-oxo-1,2-dihydropyridine-3-carboxylic acid]	–	3.5 to 12.5 (≈ 11 to 39.3 µM)	< 1	3.5 to 12.5 (≈ 11 to 39.3 µM)	12.5 to 150 (≈ 39.3 to 471 µM)	3.5 to 12.5 (≈ 11 to 39.3 µM)	3.5 to 12.5 (≈ 11 to 39.3 µM)	12.5 to 150 (≈ 39.3 to 471 µM)	12.5 to 150 (≈ 39.3 to 471 µM)	–	12.5 to 150 (≈ 39.3 to 471 µM)
CN(C)c1ccc(-c2[nH]c(=O)c(C(=O)O)c(O)c2CC(O)CO)cc1 (centres unmarked) [Cpd 329, 5-(2,3-dihydroxypropyl)-6-(4-(dimethylamino)phenyl)-4-hydroxy-2-oxo-1,2-dihydropyridine-3-carboxylic acid]	–	12.5 to 150 (≈ 35.9 to 431 µM)	12.5 to 150 (≈ 35.9 to 431 µM)	12.5 to 150 (≈ 35.9 to 431 µM)	12.5 to 150 (≈ 35.9 to 431 µM)	12.5 to 150 (≈ 35.9 to 431 µM)	3.5 to 12.5 (≈ 10 to 35.9 µM)	12.5 to 150 (≈ 35.9 to 431 µM)	12.5 to 150 (≈ 35.9 to 431 µM)	–	12.5 to 150 (≈ 35.9 to 431 µM)
C/C=C/c1c(-c2ccc(N(C)C)cc2)[nH]c(=O)c(C(=O)O)c1O [Cpd 330, (E)-6-(4-(dimethylamino)phenyl)-4-hydroxy-2-oxo-5-(prop-1-enyl)-1,2-dihydropyridine-3-carboxylic acid]	–	12.5 to 150 (≈ 39.8 to 477 µM)	1 to 3.5 (≈ 3.18 to 11.1 µM)	12.5 to 150 (≈ 39.8 to 477 µM)	12.5 to 150 (≈ 39.8 to 477 µM)	12.5 to 150 (≈ 39.8 to 477 µM)	12.5 to 150 (≈ 39.8 to 477 µM)	12.5 to 150 (≈ 39.8 to 477 µM)	12.5 to 150 (≈ 39.8 to 477 µM)	–	12.5 to 150 (≈ 39.8 to 477 µM)
CN(C)c1ccc(-c2[nH]c(=O)c(C(=O)O)c(O)c2CO)cc1 [Cpd 331, 6-(4-(dimethylamino)phenyl)-4-hydroxy-5-(hydroxymethyl)-2-oxo-1,2-dihydropyridine-3-carboxylic acid]	–	12.5 to 150 (≈ 41.1 to 493 µM)	1 to 3.5 (≈ 3.29 to 11.5 µM)	12.5 to 150 (≈ 41.1 to 493 µM)	12.5 to 150 (≈ 41.1 to 493 µM)	12.5 to 150 (≈ 41.1 to 493 µM)	3.5 to 12.5 (≈ 11.5 to 41.1 µM)	12.5 to 150 (≈ 41.1 to 493 µM)	12.5 to 150 (≈ 41.1 to 493 µM)	–	12.5 to 150 (≈ 41.1 to 493 µM)
COCc1c(-c2ccc(N(C)C)cc2)[nH]c(=O)c(C(=O)O)c1O [Cpd 332, 6-(4-(dimethylamino)phenyl)-4-hydroxy-5-(methoxymethyl)-2-oxo-1,2-dihydropyridine-3-carboxylic acid]	–	12.5 to 150 (≈ 39.3 to 471 µM)	12.5 to 150 (≈ 39.3 to 471 µM)	12.5 to 150 (≈ 39.3 to 471 µM)	12.5 to 150 (≈ 39.3 to 471 µM)	12.5 to 150 (≈ 39.3 to 471 µM)	12.5 to 150 (≈ 39.3 to 471 µM)	12.5 to 150 (≈ 39.3 to 471 µM)	12.5 to 150 (≈ 39.3 to 471 µM)	–	12.5 to 150 (≈ 39.3 to 471 µM)
CC#Cc1c(-c2ccc(N(C)C)cc2)[nH]c(=O)c(C(=O)O)c1O [Cpd 333, 6-(4-(dimethylamino)phenyl)-4-hydroxy-2-oxo-5-(prop-1-ynyl)-1,2-dihydropyridine-3-carboxylic acid]	–	12.5 to 150 (≈ 40 to 480 µM)	1 to 3.5 (≈ 3.2 to 11.2 µM)	12.5 to 150 (≈ 40 to 480 µM)	12.5 to 150 (≈ 40 to 480 µM)	12.5 to 150 (≈ 40 to 480 µM)	12.5 to 150 (≈ 40 to 480 µM)	12.5 to 150 (≈ 40 to 480 µM)	12.5 to 150 (≈ 40 to 480 µM)	–	12.5 to 150 (≈ 40 to 480 µM)
CCc1c(-c2ccc(O)cc2)[nH]c(=O)c(C(=O)O)c1O [Cpd 334, 5-ethyl-4-hydroxy-6-(4-hydroxyphenyl)-2-oxo-1,2-dihydropyridine-3-carboxylic acid]	–	12.5 to 150 (≈ 45.4 to 545 µM)	3.5 to 12.5 (≈ 12.7 to 45.4 µM)	12.5 to 150 (≈ 45.4 to 545 µM)	12.5 to 150 (≈ 45.4 to 545 µM)	12.5 to 150 (≈ 45.4 to 545 µM)	12.5 to 150 (≈ 45.4 to 545 µM)	12.5 to 150 (≈ 45.4 to 545 µM)	12.5 to 150 (≈ 45.4 to 545 µM)	–	12.5 to 150 (≈ 45.4 to 545 µM)
